Test results published in PMC3454376, “Salidroside Improves Behavioral and Histological Outcomes and Reduces Apoptosis via PI3K/Akt Signaling after Experimental Traumatic Brain Injury” (PLoS ONE, 2012).

System: mice subjected to controlled cortical impact injury
Test: Fluoro-Jade B staining of degenerating neurons
Format: in vivo
Details: day 1
Experimental: All animal procedures were approved by the Animal Research Committee at Cheng Hsin General Hospital (Animal permit number […] 101-08), and all procedures complied with the Guide for the Care and Use of Laboratory Animals published by the US National Institutes of Health (NIH Publication No. 85-23, revised 1996). Animals were housed under a 12-h light/dark cycle and at constant temperature (21-25°C) and humidity (45-50%). They were allowed free access to pellet chow and water. TBI in mice was induced by a CCI injury model as previously described. Briefly, 8-week-old male C57BL/6 mice (weighing 22-25 g) were anesthetized through the use of intraperitoneal injection of sodium pentobarbital (65 mg/kg; Rhone Merieux, Harlow, UK) and placed in a stereotaxic frame. A 5 mm craniotomy was performed over the right parietal cortex, centered on the coronal suture and 0.1 mm lateral to the sagittal suture, and injury to dura was avoided. Injury was induced using a pneumatic piston with a rounded metal tip (2.5 mm diameter) that was angled 22.5° to the vertical so that the tip was perpendicular with the brain surface at the center of the craniotomy. The impact, with a velocity of […] and a deformation depth of 2 mm below the dura, was applied. The bone flap was immediately replaced and sealed, and the scalp was sutured. Body temperature was monitored throughout the surgery by a rectal probe; temperature was maintained at 37.0±0.5°C using a heated pad. Mice were placed in a heated cage to maintain body temperature, while recovering from anesthesia. Sham-operated mice underwent the same procedure as injured mice, but without CCI. Three sets of experiments were performed. The first set was to investigate the protective effects of salidroside. All animals were randomized into 1 of 3 groups (sham injury, CCI + vehicle, CCI + SALD 20). Surgery/injury, behavioral testing, and tissue analyses were performed by different individuals. Behavioral testing and tissue analyses were performed by individuals blinded to the treatment group. Salidroside (Cayman Chemical, Ann Arbor, MI, USA) dissolved in normal saline (0.25 mL) or a corresponding volume of vehicle (saline) was administered intraperitoneally 10 min following injury. Testing after injury was completed as follows: 1) behavioral testing at days 1, 4, 7, 14, 21, and 28 (n = 8-10 mice/group); 2) cresyl violet staining at day 28 (n = 9 mice/group); 3) histology, determination of brain water content, and western blot analysis at day 1 or 3 (n = 5-6 mice/group). To determine the optimal dose of salidroside, a pilot study was performed using 2 different doses (20 and 50 mg/kg) administered 10 min after injury, and neurological deficits and tissue damage were evaluated as the main outcomes. […] The second set of experiment was to assess the effect of the inhibition of PI3K/Akt with the specific PI3K inhibitor, LY294002 (Cell Signaling Technology, Danvers, MA, USA), on salidroside effects. Animals were randomized into 4 groups. Mice received either: 1) icv pretreatment of LY294002 followed by SALD 20 after CCI (S20Y group); or 2) icv pretreatment of saline (vehicle control) followed by SALD 20 after CCI (S20V group). 3) Mice were infused icv with saline and were subjected to sham injury. 4) Mice were infused icv with LY294002 and were subjected to sham injury. Testing after injury was completed as follows: 1) cresyl violet staining at day 28 (n = 6 mice/group); 2) western blot analysis at day 1 (n = 6 mice/group). The third set of experiment was performed to examine the neuroprotective time window afforded by salidroside. Mice received intraperitoneal SALD 20 or vehicle (saline) at 3 or 6 h following CCI and were sacrificed 1 day later for FJB staining and western blot analysis (n = 6 mice/group). […]

Compound: OC[C@H]1O[C@@H](OCCc2ccc(O)cc2)[C@H](O)[C@@H](O)[C@@H]1O [SALD, salidroside]
- FJB-positive neurons around the injured cortical area (20 mg/kg ip 10 min after CCI, vehicle 87.9±5.9, P<0.01): 55.1±6.9 cells/field
- reduction of the number of FJB-positive neurons (20 mg/kg ip 10 min after injury): 37.3%
- reduction of neuronal damage (FJB) (20 mg/kg ip 3 h after injury): 21.9%
- FJB-positive neurons around the injured cortical area (20 mg/kg ip 3 h after injury, vehicle 91.2±3.3, P<0.001): 71.2±2.7 cells/field
- reduction of neuronal damage (FJB) (20 mg/kg ip 6 h after injury): 22.8%
- FJB-positive neurons around the injured cortical area (20 mg/kg ip 6 h after injury, vehicle 92.9±3.3, P<0.001): 71.7±1.6 cells/field
